In patent US6579718B1, “Carbazolylvinyl dye protein stains” (Molecular Probes, Inc., priority 2000, dated 2003):

Tests used:
[1] = molecular target: BSA (Bos taurus, UniProt P02769); experiment: Absorbance/emission spectra, fluorescence enhancement and quantum yield of dyes in solution +/- BSA (Example 21); format: physicochemical, bovine
Protocol: A particular dye of this invention is generally selected for a particular assay using one or more of the following criteria: sensitivity to poly(amino acids), insensitivity to the presence of nucleic acids, dynamic range, photostability, staining time, and spectral properties. […] Although the fluorescence enhancements and quantum yields are low to moderate in solution, some are significant relative to the long wavelength emission maxima (see Table 1 and Example 21).
Measurements are performed using −1 μM dye+/−150 μg/mL BSA in 10 mM Tris-HCl, pH 7.5,+0.05% SDS with a 2.0 mL sample volume. Fluorescence enhancements are calculated at emission maxima in a standard fluorometer using 470 nm excitation. Fluorescence quantum yields are determined relative to fluorescein (in 0.1 M NaOH), using 470 nm excitation.

[2] = tested on: amino acid homo- and hetero-polymers; experiment: Dye staining of amino acid homo- and hetero-polymers copolymerized into polyacrylamide gel discs
Excerpt: The specificity of protein detection of the present method can be compared to that of silver, CBB, SYPRO Orange dye and SYPRO Red dye staining for a variety of synthetic poly(amino acids) copolymerized into a polyacrylamide gel matrix. To do this, homopolymers of L-arginine, asparagine, histidine, lysine, aspartate, glutamate, alanine, glycine, isoleucine, leucine, methionine, serine, threonine, tryptophan, tyrosine and proline are copolymerized into 15% T, 2.6% C polyacrylamide gels at a concentration of […]. Except when indicated, 0.1% sodium dodecyl sulfate is included in the polyacrylamide solution as well. The amino acid heteropolymers, poly(glutamate, alanine, tyrosine), poly(glutamate, tyrosine), poly(lysine, tyrosine), poly(glutamate, lysine, tyrosine), and poly(arginine, tyrosine) are copolymerized into polyacrylamide gels in an identical manner as the homopolymers. Blank gels containing no polymer are prepared for reference. The co-polymerized gels are cut into discs using the large end of a 1000 microliter pipet tip (Sorenson Bioscience, Inc., West Salt. Lake City, Utah) and stained in Falcon 48 well flat bottom tissue culture plates (Becton-Dickinson, Franklin Lakes, N.J.) on an orbital shaker operating at 50 RPM. Gel discs are quantified on a Roche Lumi-Imager system (Indianapolis, Ind.) and classified into three groups based upon staining intensity (strong, moderate, or weak staining).

[3] = tested on: broad-range protein molecular weight markers; experiment: Staining of broad-range molecular weight protein standards in SDS-polyacrylamide gels (Example 22, FIG. 2, 3)
Protocol: (§1) FIG. 2: Intensity profile comparison after staining broad-range protein molecular weight markers with SYPRO Orange dye in 7% acetic acid and phosohate-buffered saline. FIG. 2A.) Profile obtained with SYPRO Orange dye in 7% acetic acid. FIG. 2B.) Profile obtained with SYPRO Orange dye in 50 mM sodium phosphate, 150 mM sodium chloride, pH 7.0. Grey scale values of the fluorescence signals were inverted prior to obtaining the traces to facilitate evaluation of the peaks.
as §1, with “3:” for “2:”, “Compound 9” for “SYPRO Orange dye”, “phosphate-buffered” for “phosohate-buffered”, “3A.)” for “2A.)”, “3B.)” for “2B.)”
SDS-polyacrylamide gel electrophoresis is performed by standard methods utilizing 4% T, 2.6% C stacking gels, pH 6.8 and 15% T, 2.6% C separating gels, pH 8.8. % T is the total monomer concentration expressed in grams per 100 mL and % C is the percentage crosslinker. A staining solution of Compound 9 is prepared by diluting a stock solution that 5 is […] dye in DMSO in either 7.5% acetic acid or 50 mM Na2HPO4, 150 mM NaCl, pH 7.0 with vigorous mixing. Alternatively, a wide range of buffers are compatible with staining, including but not limited to formate, pH 4.0; citrate, pH 4.5; acetate, pH 5.0; MES, pH 6.0;
imidazole, pH 7.0; HEPES, pH 7.5; Tris acetate, pH 8.0; Tris-HCl, pH 8.5; Tris borate, 20 mM EDTA, pH 9.0; and bicarbonate, pH 10.0. Buffers should be prepared as 50-100 mM 10 solutions containing about 150 mM NaCl. Approximately 50-75 mL of staining solution is used for a typical mini-gel (5 cm×9 cm×1 mm). The gel is placed into the staining solution and the container is covered with aluminum foil to protect the dye from bright light. The gel is gently agitated for at least 30 minutes at room temperature using an orbital shaker (50:RPM). After staining, the gel is briefly dipped in water and visualized on a UV light box. […] As little as 1 ng of protein may be visualized when the fluorescent image is recorded by photography using a cellophane 490-nm long pass filter. […] In the latter buffer, protein bands are barely detectable above background fluorescence with these latter dyes.

[4] = tested on: proteins; experiment: Staining of proteins separated in presence of alternative detergents; conditions: alternative detergents instead of SDS
[5] = tested on: proteins; experiment: Staining protein gels with dye in the running buffer (Example 30); conditions: running buffer with 0.05% SDS and 1-3 μM dye
Protocol: The proteins of interest are prepared for loading on standard SDS gels, using standard methods. Dilution series of known molecular weight markers, or proteins of unknown concentration, or protein mixtures of unknown composition are used. The gels are loaded and run under standard conditions, excepting that the running buffer contains 0.05% SDS and 1-3 μM Compound 9. The stained gels are either photographed directly after electrophoresis or are destained in 7.5% acetic acid or phosphate-buffered saline for 20-50 minutes to remove background staining prior to photography. […] In addition, the migration of protein bands can be monitored through the glass plates that support the gel, during electrophoresis. Such monitoring can either be calorimetric, since the stained protein bands are visually colored, or can be via fluorescence, if the excitation source is at visible wavelengths (such as a laser or mercury-arc lamp, for example).

[6] = 150 μg/mL BSA, 10 mM Tris-HCl, pH 7.5, 0.05% SDS
[7] = dye without BSA, 10 mM Tris-HCl, pH 7.5, 0.05% SDS
[8] = gel discs with 0.1% SDS, no asterisk = moderate

Sequence of BSA (P02769 25-607): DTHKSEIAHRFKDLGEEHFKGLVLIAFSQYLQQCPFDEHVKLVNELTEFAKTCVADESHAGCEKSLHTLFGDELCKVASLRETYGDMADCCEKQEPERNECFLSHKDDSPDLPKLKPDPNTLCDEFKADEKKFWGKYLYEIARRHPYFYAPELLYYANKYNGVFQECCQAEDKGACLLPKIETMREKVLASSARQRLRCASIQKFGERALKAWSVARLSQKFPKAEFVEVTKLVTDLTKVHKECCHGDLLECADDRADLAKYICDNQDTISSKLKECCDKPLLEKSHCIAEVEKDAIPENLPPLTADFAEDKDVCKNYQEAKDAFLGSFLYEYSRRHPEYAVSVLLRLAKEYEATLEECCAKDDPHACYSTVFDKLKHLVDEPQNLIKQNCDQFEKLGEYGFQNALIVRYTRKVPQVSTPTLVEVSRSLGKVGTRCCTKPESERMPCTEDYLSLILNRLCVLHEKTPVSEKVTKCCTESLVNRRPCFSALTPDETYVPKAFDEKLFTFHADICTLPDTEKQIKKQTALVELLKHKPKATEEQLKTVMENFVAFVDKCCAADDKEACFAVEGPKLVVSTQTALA

Question: With `CCn1c2ccccc2c2cc(/C=C/c3cc[n+](CCCCS(=O)(=O)[O-])c4ccccc34)ccc21` [Compound 9] as the compound, how does the ABS λ max, BSA [1, 6] read?
Answer: 480 nm

Question: And the “EM λ max, BSA” value [1, 6]?
Answer: 604 nm

Question: And the “FE (fluorescence enhancement, BSA)” value ([1]; 150 μg/mL BSA, 0.05% SDS, at emission maxima, 470 nm excitation)?
Answer: 92 fold

Question: And the “Quantum Yield (BSA)” value ([1]; 150 μg/mL BSA, relative to fluorescein in 0.1 M NaOH, 470 nm excitation)?
Answer: 0.21

Question: What about the ABS λ max, unbound [1, 7] of the same compound?
Answer: 479 nm

Question: And the “EM λ max, unbound” value [1, 7]?
Answer: ~700 nm

Question: What about the “Staining intensity, Arg homopolymer” value [2, 8] of the same compound?
Answer: Arg*

Question: What about the “Staining intensity, Arg:Tyr heteropolymer” value [2, 8] of the same compound?
Answer: Arg:Tyr*

Question: And the “Staining intensity, Glu:Ala:Tyr heteropolymer” value [2, 8]?
Answer: Glu:Ala:Tyr*

Question: What about the “Staining intensity, Glu:Lys:Tyr heteropolymer” value [2, 8] of the same compound?
Answer: Glu:Lys:Tyr*

Question: What about the “Staining intensity, Glu:Tyr heteropolymer” value [2, 8] of the same compound?
Answer: Glu:Tyr*

Question: What about the “Staining intensity, Gly homopolymer” value [2, 8] of the same compound?
Answer: Gly

Question: What about the “Staining intensity, His homopolymer” value [2, 8] of the same compound?
Answer: His*

Question: And the “Staining intensity, Ile homopolymer” value [2, 8]?
Answer: Ile

Question: And the “Staining intensity, Lys homopolymer” value [2, 8]?
Answer: Lys*

Question: What about the “Staining intensity, Lys:Tyr heteropolymer” value [2, 8] of the same compound?
Answer: Lys:Tyr*

Question: And the “Staining intensity, Tyr homopolymer” value [2, 8]?
Answer: Tyr*

Question: And the “Change of amino acid polymer staining in phosphate-buffered saline” value ([2]; phosphate-buffered saline versus 7% acetic acid)?
Answer: not substantially reduced

Question: What about the “Brightness of protein band staining” value ([3]; 7% acetic acid) of the same compound?
Answer: as brightly as SYPRO Orange dye

Question: And the “Amount of protein that may be visualized (detection sensitivity)” value ([3]; SDS-polyacrylamide gel, photography with 490-nm long pass filter)?
Answer: 1 ng

Question: What about the “Brightness of protein staining compared with SYPRO Orange dye” value ([3]; phosphate-buffered saline) of the same compound?
Answer: much more brightly

Question: What about the “Appearance of stained proteins on UV light box” value ([3]; regardless of the buffer) of the same compound?
Answer: bright orange bands

Question: And the “Staining of proteins separated in presence of Triton X-100 or N-benzyl-N,N-dimethylhexadecylammonium chloride” value [4]?
Answer: does not stain proteins

Question: And the “Sensitivity compared with staining gels after electrophoresis” value [5]?
Answer: about the same
